Key:
[1] = target: T1, M2 muscarinic receptor (Homo sapiens, UniProt P08172); assay: Cerep ExpresSProfile receptor screen, M2; details: data not shown, read-out: % inhibition of ligand binding, M2 muscarinic receptor
T1 construct: purchased Cerep (ExpresSProfile screen, contract service)
Description: (§1) To investigate the molecular bases of cardio toxicity, the agent was tested for its potential to interact with a panel of 54 pharmacological receptors, the majority being human recombinant receptors (Cerep ExpresSProfile screen) (http://www.cerep.fr).

[2] = target: T2, hERG (Homo sapiens, UniProt Q12809); assay: hERG tail current inhibition, patch clamp assay; type: cell-based; details: human, HEK293 cells (hERG study), 10 μM, HEK293 cells, read-out: hERG % inhib. (10 μM)
T2 construct: expressed in transfected cells; host or cells: HEK293
T2 sequence (Q12809 whole entry): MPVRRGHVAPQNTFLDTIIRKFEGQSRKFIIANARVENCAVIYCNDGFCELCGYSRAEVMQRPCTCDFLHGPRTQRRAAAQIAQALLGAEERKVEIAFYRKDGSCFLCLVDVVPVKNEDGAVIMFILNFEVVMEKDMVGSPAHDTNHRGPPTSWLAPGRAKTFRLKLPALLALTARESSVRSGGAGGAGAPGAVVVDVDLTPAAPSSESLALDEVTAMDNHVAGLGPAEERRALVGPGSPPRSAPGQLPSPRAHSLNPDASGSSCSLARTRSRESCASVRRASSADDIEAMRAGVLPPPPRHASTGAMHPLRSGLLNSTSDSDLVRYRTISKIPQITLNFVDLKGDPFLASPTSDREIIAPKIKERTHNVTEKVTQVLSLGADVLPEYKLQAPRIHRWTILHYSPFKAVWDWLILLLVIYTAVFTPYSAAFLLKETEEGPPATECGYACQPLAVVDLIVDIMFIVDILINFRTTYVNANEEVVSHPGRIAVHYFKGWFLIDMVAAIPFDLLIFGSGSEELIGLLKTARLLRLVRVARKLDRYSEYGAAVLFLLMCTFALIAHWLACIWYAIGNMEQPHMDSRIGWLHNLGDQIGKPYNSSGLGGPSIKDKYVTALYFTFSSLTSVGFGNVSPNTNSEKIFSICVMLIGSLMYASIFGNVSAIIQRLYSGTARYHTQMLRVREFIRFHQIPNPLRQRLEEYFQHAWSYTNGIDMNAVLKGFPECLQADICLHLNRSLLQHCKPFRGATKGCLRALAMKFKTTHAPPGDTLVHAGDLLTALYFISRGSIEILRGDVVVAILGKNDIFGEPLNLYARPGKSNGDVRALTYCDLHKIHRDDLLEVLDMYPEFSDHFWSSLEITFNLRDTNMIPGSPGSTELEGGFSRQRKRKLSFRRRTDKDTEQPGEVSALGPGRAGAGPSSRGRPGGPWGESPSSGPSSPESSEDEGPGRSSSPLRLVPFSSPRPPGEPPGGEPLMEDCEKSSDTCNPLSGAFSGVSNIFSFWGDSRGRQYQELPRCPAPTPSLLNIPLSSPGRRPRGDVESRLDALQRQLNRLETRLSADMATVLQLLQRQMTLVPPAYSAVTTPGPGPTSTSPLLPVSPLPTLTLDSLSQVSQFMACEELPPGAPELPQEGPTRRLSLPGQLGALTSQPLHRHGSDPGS
Description: (§2) For hERG study, HEK293 cells were cultured (1–7 days) in DMEM/GlutaMax-1 + 10% FBS and were plated on collagen-coated dishes (about 2×10^4 cells/dish). The cell was held at -80 mV. A 50-millisecond pulse to -40 mV was delivered to measure the leaking currents, which were subtracted from the tail currents online. […] This paradigm was delivered once every 5 seconds to monitor the current amplitude. After the current amplitude stabilized, the test compound was delivered to the extracellular medium by a rapid solution changer perfusion system. During perfusion, the cell was repetitively stimulated with the protocol described above, and the current amplitude was continuously monitored. Data were acquired and analyzed by using pClamp (Axon Instruments), and Excel (Microsoft), and are reported as mean and individual values. The degree of inhibition (%) was obtained by measuring the tail current amplitude before and after drug superfusion (the difference current was normalized to control and multiplied by 100 to obtain the percent of inhibition). […] The concentration-response relationship of each compound was constructed from the percentage reductions of current amplitude by sequential concentrations. β2-adrenergic receptor CHO expressing cells were used for the receptor inhibition assay as described. The results are expressed as a percent of inhibition of control specific binding (100 - (measured specific binding/control specific binding) × 100)) obtained in the presence of the test compounds. The specific ligand binding to the receptors is defined as the difference between the total binding and the nonspecific binding determined in the presence of an excess of unlabelled ligand. All the in-vivo experiments were carried out at the Regina Elena Cancer Institute. All procedures involving animals and care were performed in compliance with our institutional animal care guidelines and with international directives (directive 2010/63/EU of the European parliament and of the council; Guide for the Care and Use of Laboratory Animals, United States National Research Council, 2011).

[3] = target: T3, hERG (human Ether-a-go-go Related Gene) tail current (Homo sapiens, UniProt Q12809); assay: hERG tail current inhibition, patch clamp assay; type: cell-based
T3 construct: expressed in transfected cells; host or cells: HEK293
T3 sequence (Q12809 whole entry): as above
Description: as §2

[4] = test system: human tumor xenografted nude mice; parameters: method as in PMID 19010844; details: cited from earlier work
[5] = test system: anaphase bridges in BJ-EHLT fibroblasts; type: cell-based; details: 0.5 μM, 24 hrs
Description: Anaphase bridges were scored by counting 400 nuclei per sample in triplicate. Histograms show the fold induction in treated versus untreated samples. Right panels show representative images of anaphase bridges in the treated samples at 63× magnification. Histograms show the mean of three independent experiments. Error bars indicate ± SD. (*P < 0.05).
As a result of chromosome ends fusion consequent to telomere damage, chromatin bridges are occasionally observed between daughter cells after mitosis (also called anaphase bridges).

[6] = target: T4, M1 muscarinic receptor (Homo sapiens, UniProt P11229); assay: Cerep ExpresSProfile receptor screen, M1; details: data not shown, read-out: % inhibition of ligand binding, M1 muscarinic receptor
T4 construct: purchased Cerep (ExpresSProfile screen, contract service)
T4 sequence (P11229 whole entry): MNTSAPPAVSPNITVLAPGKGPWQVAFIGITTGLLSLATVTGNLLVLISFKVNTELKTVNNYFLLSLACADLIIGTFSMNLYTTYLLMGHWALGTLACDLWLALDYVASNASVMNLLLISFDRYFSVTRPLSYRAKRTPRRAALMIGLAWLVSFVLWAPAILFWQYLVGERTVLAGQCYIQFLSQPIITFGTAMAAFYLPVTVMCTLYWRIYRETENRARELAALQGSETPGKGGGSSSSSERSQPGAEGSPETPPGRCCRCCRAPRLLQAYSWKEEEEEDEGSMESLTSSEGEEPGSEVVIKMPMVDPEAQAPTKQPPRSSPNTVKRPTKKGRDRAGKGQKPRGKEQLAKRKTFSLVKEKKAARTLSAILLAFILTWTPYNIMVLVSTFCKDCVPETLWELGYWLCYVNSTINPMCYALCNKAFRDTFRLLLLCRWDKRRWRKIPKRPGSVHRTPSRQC
Description: as §1

[7] = target: telomerase; parameters: method as in PMID 15304549; details: Trap assay; read-out: telomerase inhibition IC50; cited from earlier work
[8] = test system: Telomere dysfunction Induced Foci in BJ-EHLT fibroblasts; assay: TIF analysis (γH2AX/TRF1 co-localization); type: cell-based, human; details: 24 hrs; for number of TIFs per nucleus: mean
Description: (§3) Cells were fixed in 2% formaldehyde and permeabilized in 0.25% Triton X100 in PBS for 5 min at room temperature. For immunolabeling, cells were incubated with primary antibody, then washed in PBS and incubated with the secondary antibodies. The following primary antibodies were used: pAb and mAb anti-TRF1 (Abcam Ltd.; Cambridge UK); mAb (Upstate, Lake Placid, NY) and pAb anti-γH2AX (Abcam). The following secondary antibody were used: TRITC conjugated Goat anti Rabbit, FITC conjugated Goat anti Mouse (Jackson ImmunoResearch Europe Ltd., Suffolk, UK). Fluorescence signals were recorded by using a Leica DMIRE2 microscope equipped with a Leica DFC 350FX camera and elaborated by a Leica FW4000 deconvolution software (Leica, Solms, Germany). This system permits to focus single planes inside the cell generating 3D high-resolution images. For quantitative analysis of γH2AX positivity, 200 cells on triplicate slices were scored. For TIF’s analysis, in each nucleus a single plane was analyzed and at least 50 nuclei per sample were scored.

[9] = test system: duplex (D) DNA hairpin, 5'-biotin-CGA3T3C(CT)2GA3T3CG (DNA, hairpin) CGAAATTTCCTCTGAAATTTCG; assay: surface plasmon resonance; details: 200 mM KCl; 10 mM HEPES, 3 mM EDTA, 0.01% P20, pH 7.4
[10] = test system: NCI60 panel; assay: NCI60 panel growth inhibition; type: cell-based, human
[11] = test system: γH2AX in BJ-EHLT fibroblasts; assay: Immunofluorescence for γH2AX (DNA damage response); type: cell-based, human; details: 0.5 μM, 24 hrs
Description: as §3

[12] = test system: telomere aberrations in BJ-EHLT fibroblasts; assay: Telomere FISH on metaphase spreads; type: cell-based, human; details: 0.5 μM, 72 hrs
Description: For metaphase chromosome preparation cells were treated with demecolcine (Sigma, Milan, Italy) 0.1 mg/ml for 4 h and then harvested and washed in 75 mM KCl for 5 min at 37°C. After centrifugation cells were fixed in MeOH/acetic acid 3:1 overnight and then spread on slides. Hybridization with rhodamine-coupled PNA was performed as described. For each sample 20 metaphases per slice on triplicate were scored. Images of the metaphases were captured with a 100 × objective.

[13] = test system: BJ-hTERT fibroblasts; assay: Proliferation assay, normal telomerised fibroblasts; type: cell-based, human; details: 0.5 μM, culture day 2 to 8
Description: BJ fibroblasts expressing hTERT (BJ-hTERT) or hTERT and SV40 early region (BJ-EHLT), were obtained as previously reported. Cells were grown in Dulbecco Modified Eagle Medium (D-MEM, Invitrogen Carlsbad, CA, USA) supplemented with 10% fetal calf serum, 2 mM L-glutamin and antibiotics.
5 × 10^4 cells were seeded in 60-mm Petri plates (Nunc, MasciaBrunelli, Milano, Italy) and 24 h after plating, 0.5 μM of freshly dissolved compound was added to the culture medium. Cell counts (Coulter Counter, Kontron Instruments, Milano, Italy) and viability (trypan blue dye exclusion) were determined daily, from day 2 to day 8 of culture.

T1 sequence (P08172 whole entry): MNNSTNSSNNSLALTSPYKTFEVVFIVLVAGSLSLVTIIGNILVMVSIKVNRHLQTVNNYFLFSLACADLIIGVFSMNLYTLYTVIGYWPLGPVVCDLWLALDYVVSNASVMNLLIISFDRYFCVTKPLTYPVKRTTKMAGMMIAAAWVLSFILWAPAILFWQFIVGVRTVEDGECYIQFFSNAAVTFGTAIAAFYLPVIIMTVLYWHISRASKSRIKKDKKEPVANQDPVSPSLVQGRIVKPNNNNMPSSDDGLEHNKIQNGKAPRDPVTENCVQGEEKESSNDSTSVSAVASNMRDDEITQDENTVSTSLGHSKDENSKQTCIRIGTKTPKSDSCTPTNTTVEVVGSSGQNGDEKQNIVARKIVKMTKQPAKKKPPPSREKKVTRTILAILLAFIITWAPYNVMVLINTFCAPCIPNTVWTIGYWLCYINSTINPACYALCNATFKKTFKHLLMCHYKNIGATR

SMILES	inhibition at 1 µM [1] [%]	inhibition at 10 µM [2] [%]	IC50 [3] [µM]	toxic deaths or body weight loss ([4]; efficacious doses, during or after treatment)	histological analysis of organs and tissues ([4]; end of treatment)	haemodynamic effect just after administration ([4]; treated vs control mice, with heart rate and cardiac output decrease)	anaphase bridges frequency, fold induction vs untreated [5]	inhibition at 1 µM [6] [%]	IC50 [7] [µM]	number of TIFs per nucleus [8]	K [9] [M⁻¹]	GI50 ([10]; Homo sapiens, NCI data, read-out: Mean GI50 value from the NCI60 panel) [µM]	effect on cell proliferation in a panel of different histotype tumor cell lines ([10]; several human cancer cell lines)	percentage of TIF-positive cells ([8]; cells with more than four γH2AX/TRF1 co-localizations)	percentage of cells positive for γH2AX [11]	telomere aberrations (telomere doublets, sister telomere fusions) [12]	inhibition of cell proliferation in normal telomerized fibroblasts [13]
Cc1cc2c3c([n+](C)c4ccc(F)cc4c3c1)-c1cc(F)ccc1N2C [Compound 1, 3,11-Difluoro-6,8,13-trimethyl-8H-quino[4,3,2-kl]acridinium metho-sulfate]	> 95	100	0.2	no toxic deaths or body weight loss	no evidence of lesions or morphological alterations	marked but reversible hypotension	ten	> 95	0.33	ca. eight	600000	–	–	–	–	–	–
CC(=O)Nc1ccc2c(c1)c1cccc3c1c([n+]2C)-c1ccccc1N3C [Compound 3, 3-acetylamino-8,13-dimethyl-8H-quino[4,3,2-kl]-acridinium iodide]	–	21	18	–	–	–	–	–	–	six	700000	81.3	maintained an anti-proliferative effect	significant but less pronounced effect	less potent than the lead compound	lower effect	did not induce inhibition of cell proliferation

From PMC3849007 (Journal of Experimental & Clinical Cancer Research : CR, 2013)
